Data as given in publication PMC3819306, “Exploring the Binding Nature of Pyrrolidine Pocket-Dependent Interactions in the Polo-Box Domain of Polo-Like Kinase 1” (PLoS ONE, 2013).
Where two headings read alike, the source gives them in different places. Where a SMILES comes first, the peptide text is derived from it.

Assays:
Plk1 PBD [1] = molecular target: T1, Plk1 PBD (Homo sapiens, UniProt P53350); assay: ELISA-based Plk1 PBD-binding inhibition assay
T1 construct: Mitotic 293A lysates expressing HA-EGFP-Plk1 were prepared in the TBSN buffer; expressed in transfected cells; host or cells: 293A cells, mitotic lysate
T1 sequence (P53350 whole entry): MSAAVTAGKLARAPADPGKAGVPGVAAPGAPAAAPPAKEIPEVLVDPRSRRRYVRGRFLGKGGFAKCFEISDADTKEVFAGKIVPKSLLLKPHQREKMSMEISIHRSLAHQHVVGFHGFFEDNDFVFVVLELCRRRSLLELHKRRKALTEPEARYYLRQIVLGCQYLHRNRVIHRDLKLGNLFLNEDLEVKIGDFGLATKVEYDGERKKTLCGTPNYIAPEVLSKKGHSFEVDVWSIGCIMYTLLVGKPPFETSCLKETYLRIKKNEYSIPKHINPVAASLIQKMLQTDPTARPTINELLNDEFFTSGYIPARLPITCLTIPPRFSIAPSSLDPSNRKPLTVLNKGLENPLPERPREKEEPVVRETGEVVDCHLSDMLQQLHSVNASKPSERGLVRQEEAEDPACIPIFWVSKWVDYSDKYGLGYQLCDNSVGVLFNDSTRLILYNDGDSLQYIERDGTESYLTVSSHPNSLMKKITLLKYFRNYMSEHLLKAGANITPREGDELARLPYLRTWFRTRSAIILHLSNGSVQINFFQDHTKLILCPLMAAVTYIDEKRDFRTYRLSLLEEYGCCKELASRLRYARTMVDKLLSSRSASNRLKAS
Experimental: The wells were washed once with PBS + 0.05% Tween 20 (PBST), and incubated with 200 µl of PBS + 1% BSA (blocking buffer) for 1 h to prevent the unoccupied sites. […] Next, the plates were washed four times with PBST, and to detect the bound HA-EGFP-Plk1, the plates were incubated for 2 h with 100 µL/well of anti-HA antibody at a concentration of 0.5 µg/mL in the blocking buffer, and then the plates were washed five times. Furthermore, the plates were incubated with 100 µL/well of secondary antibody at a 1:1,000 dilution in the blocking buffer. Afterward, the plates were washed five times with PBST and incubated with 100 µL/well of 3,3′,5,5′-tetramethylbenzidine (TMB) substrate solution (Sigma, St. Louis, MO) until a desired absorbance was achieved. The reactions were terminated by the addition of 1 N H2SO4, and the optical densities were measured at 450 nm using an ELISA plate reader (Molecular Device, Sunnyvale, CA).

PBD of Plk1 = molecular target: T2, PBD of Plk1 (Homo sapiens, UniProt P53350); assay: Fluorescence polarization assay, Plk1 PBD; assay type: binding; settings: 25 nM 5-carboxyfluorescein-DPPLHSpTAI-OH, Figure 8, read-out: IC50 PBD1
T2 construct: The Plk1 PBD protein (residues 371−603) was purified as previously described; made in house
T2 sequence (P53350 371-603): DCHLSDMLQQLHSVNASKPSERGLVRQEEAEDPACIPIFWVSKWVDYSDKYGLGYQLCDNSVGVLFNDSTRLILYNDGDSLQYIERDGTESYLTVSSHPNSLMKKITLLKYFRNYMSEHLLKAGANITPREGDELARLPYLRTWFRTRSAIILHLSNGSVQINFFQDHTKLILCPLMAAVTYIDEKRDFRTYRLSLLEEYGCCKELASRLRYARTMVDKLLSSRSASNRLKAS
Experimental: Fluorescein-labeled peptides (5-carboxyfluorescein-DPPLHSpTAI-OH, final concentration: 25 nM) were incubated with the PBDs of Plk1, Plk2, and Plk3, respectively (final concentrations of buffer components: 10 mM Tris [pH 8.0], 1 mM EDTA, 50 mM NaCl, and 0.01% Nonidet P-40). Fluorescence polarization was analyzed 10 min after mixing all components in the 384-well format using a Molecular Devides SpectraMax Paradigm Multi-Mode Microplate Detection Platform. All experiments were performed in triplicate.

Plk1 PBD [2] = molecular target: T1, Plk1 PBD; design: method as in PMID 19597481; settings: cited from earlier work
[3] = ELISA-based assay, text values referring to Figure 2, read-out: IC50 (Plk1 PBD binding)
[4] = first-phase N-alkylated Pro derivatives, HA-EGFP-Plk1 from mitotic 293A lysates vs immobilized p-T78 peptide, Figure 2, read-out: IC50 (ELISA-based Plk1 PBD-binding assay, Figure 2B)

Compound: COc1cc(CN2CCC[C@H]2C(=O)N[C@@H](CC(C)C)C(=O)N[C@@H](Cc2c[nH]cn2)C(=O)N[C@@H](CO)C(=O)N[C@H](C(=O)N[C@@H](CCSC)C(N)=O)[C@@H](C)OP(=O)(O)O)cc(OC)c1OC [PL-42, (MeO)3PhCH2PLHSpTM] (HELM PEPTIDE1{[COc1cc(CN2CCC[C@H]2C(=O)[*:2])cc(OC)c1OC].L.H.S.[C[C@@H](OP(=O)(O)O)[C@H](N[*:1])C(=O)[*:2]].M.[am]}$$$$V2.0)
- IC50 (Plk1 PBD [1]; [3]): 1480 nM
- IC50 (Plk1 PBD [1]; [4]): 1640 nM
- IC50 (PBD of Plk1): 522 nM

Compound: CSCC[C@H](NC(=O)[C@@H](NC(=O)[C@H](CO)NC(=O)[C@H](Cc1c[nH]cn1)NC(=O)[C@H](CC(C)C)NC(=O)[C@@H]1CCCN1C(=O)CC12CC3CC(CC(C3)C1)C2)[C@@H](C)OP(=O)(O)O)C(N)=O [PL-55] (HELM PEPTIDE1{[O=C(CC12CC3CC(CC(C3)C1)C2)[*:2]].P.L.H.S.[C[C@@H](OP(=O)(O)O)[C@H](N[*:1])C(=O)[*:2]].M.[am]}$$$$V2.0)
- IC50 (PBD of Plk1): 131 nM

Compound: LHSpTA
- binding to Plk1 PBD compared with PLHSpT (Plk1 PBD [2]): almost as efficiently as the PLHSpT did

Compound: CSCC[C@H](NC(=O)[C@@H](NC(=O)[C@H](CO)NC(=O)[C@H](Cc1c[nH]cn1)NC(=O)[C@H](CC(C)C)NC(=O)[C@@H]1CCCN1C(=O)CC1CCCCC1)[C@@H](C)OP(=O)(O)O)C(N)=O [PL-57] (HELM PEPTIDE1{[O=C(CC1CCCCC1)[*:2]].P.L.H.S.[C[C@@H](OP(=O)(O)O)[C@H](N[*:1])C(=O)[*:2]].M.[am]}$$$$V2.0)
- IC50 (Plk1 PBD [1]; first-phase N-acylated cyclohexyl analogues, values printed in picture of Figure 4, read-out: IC50 (ELISA-based Plk1 PBD-binding assay, Figure 4B)): 520 nM

Compound: CSCC[C@H](NC(=O)[C@@H](NC(=O)[C@H](CO)NC(=O)[C@H](Cc1c[nH]cn1)NC(=O)[C@H](CC(C)C)NC(=O)[C@@H]1CCCN1Cc1cc2c(cc1Cl)OCO2)[C@@H](C)OP(=O)(O)O)C(N)=O [PL-43] (HELM PEPTIDE1{[O=C([C@@H]1CCCN1Cc1cc2c(cc1Cl)OCO2)[*:2]].L.H.S.[C[C@@H](OP(=O)(O)O)[C@H](N[*:1])C(=O)[*:2]].M.[am]}$$$$V2.0)
- IC50 (Plk1 PBD [1]; [4]): 4470 nM

Compound: CSCC[C@H](NC(=O)[C@@H](NC(=O)[C@H](CO)NC(=O)[C@H](Cc1c[nH]cn1)NC(=O)[C@H](CC(C)C)NC(=O)[C@@H]1CCCN1CC1CCCCC1)[C@@H](C)OP(=O)(O)O)C(N)=O [PL-49, cyclohexylmethyl-PLHSpTM] (HELM PEPTIDE1{[O=C([C@@H]1CCCN1CC1CCCCC1)[*:2]].L.H.S.[C[C@@H](OP(=O)(O)O)[C@H](N[*:1])C(=O)[*:2]].M.[am]}$$$$V2.0)
- IC50 (Plk1 PBD [1]; [3]): 360 nM
- IC50 (Plk1 PBD [1]; [4]): 410 nM
